Consider one molecule from PMC12019328, “Discovery of an ApoE4-targeted small-molecule SirT1 enhancer for the treatment of Alzheimer’s disease” (Scientific Reports, 2025).

Data set [1] concerns SirT1 promoter. Nature of the data set: ChIP analysis of SirT1 promoter occupancy in brain tissue of ApoE4-TR:5xFAD mice. The data set is classed as in vivo. As to conditions: vs Veh. Here is the method: 17-371) following manufacturer's instructions. Brain was frozen to -80C, then powdered on dry
ice and split for either RNA analysis or for the ChIP assay, approximately ~100mg powderized
tissue was fixed in formaldehyde. For cultured cells in vitro, cells were fixed in each well and
harvested by scraping. Samples were sonicated to break chromatin into 200-1000bp fragments
(according to previously optimized conditions), using a Epishear programmable sonicator (Active
Motif), and aliquots were subjected to immunoprecipitation with antibodies against either apoE4
(Novus), RNA Polymerase (supplied in the Ez-ChIP kit), or mouse IgG (isotype matched).
Immunoprecipitated chromatin was subjected to conditions that reversed the cross-links, and
DNA was purified. The immunoprecipitated DNA was measured for the level of immuno-captured
SirT1 gene promoter sequence using qPCR with PCR primers that bind flanking the SirT1 CLEAR
sequence. PCR produced an amplicon of 125bp with the CLEAR site near one end, the CLEAR
sequence is bold underlined in the following 125bp PCR amplicon:
PCR amplification Ct values for apoE4 and RNAP were normalized to the levels obtained for
IgG and further normalized to the level of input DNA. This level of immuno-captured DNA indicates
the level of apoE4 or RNAP occupancy of CLEAR site region of the SirT1 gene promoter.
Figure S7. SirT1 promoter binding by RNA polymerase and ApoE4. […]

Data set [2] can be described thus: Observable adverse effects in 56-day oral treatment of AD model mice. In kind it is in vivo. As to conditions: 56-day oral treatment of ApoE4-expressing AD model mice. Here is the method: The active (-) enantiomer, DDL-218, underwent efficacy testing in ApoE4-TR:5xFAD mice[27] that were 6-7.5 months old at the start of treatment. ApoE4-TR:5xFAD male and female mice received either 20 mg/Kg DDL-218 BID (~ 8- to10-hour interval; total daily dose of 40 mkd) on weekdays and a single 40 mg/Kg dose on weekends (n = 12) or vehicle-only (n = 11); 8 C57BL/6 mice received vehicle-only as behavioral controls. Dosing was by the oral route and by oral feeding using a pipette as previously described, not gavage, as it is safer for repeated oral dosing than gavage. The dose of 20 mg/kg BID (40 mkd) was selected based on findings from PK analysis and was the highest feasible in the formulation used for oral feeding (compound is first solubilized in water, then mixed strawberry syrup diluted in water, for a final vehicle that is 25% syrup and 75% water). The final concentration of DDL-218 was chosen to deliver 20 mg/Kg in a volume of 10–20 µL (adjusted to the weight of each mouse). Mice were treated for 56 days (8 weeks); in week 7, mice underwent Barnes maze testing[29] as described below.

Data set [3] concerns SirT1 promoter. Nature of the data set: ChIP analysis of SirT1 promoter occupancy in Kelly cells. As to conditions: vs DMSO. In kind it is cell-based, human. The protocol: Correlations between gene mRNAs in DDL-214, -218, and -219-treated Kelly cells
As described in the main manuscript, human Kelly neuroblastoma cells were treated with
racemate DDL-214, and enantiomers DDL-218 and -219. Levels of PRMT5, NFYb, SirT1, and
PPP2r5e mRNAs were then determined. The correlations between these gene mRNAs for all
Data points are graphed by
treatment in Figure S6D-F and their significant correlation (Pearson correlation 0.914) in
bioinformatic analysis of gene co-expression of 2300 human brain RNAseq samples performed
at Genefriends.org (Raina, et al. (2022) GeneFriends: gene co-expression databases and tools
for humans and model organisms, Nucleic Acids Research, 2022;
Figure S6. Correlation of gene mRNA levels in DDL-treated Kelly cells. All data points are shown for (A)
PRMT5 vs. NFYb, (B) SirT1 vs. PRMT5, and (C) PPP2r5E vs. SirT1. R2 values are shown on the upper
right of each panel. (D-F) The same data with treatment (DDL-214, -218, or -219) indicated by symbols
shown below panel (E). The statistical 'r' value and significance determined by Pearsons Correlation
ChIP assay for SirT1 gene promoter occupancy by ApoE4 and RNA polymerase […]
promoter by ApoE4 or RNA Polymerase (RNAP) was determined using an EZ-ChIP kit (Millipore […]
DNA was purified. The immunoprecipitated DNA was measured for the level of immuno-captured […]

For the molecule `CC(N)C(=O)OC(C)(C)Cc1ccncc1` (centres unmarked) [DDL-218], in data set [1], the “ApoE4 binding to the SirT1 promoter” value was “lower, but the effect was not significant” and the “RNAP binding to the SirT1 promoter” value is listed as “significantly increased”. The observable adverse effects entry in data set [2] is given as “not associated with any observable adverse effects”. In addition, in data set [3], the “ApoE4 binding to SirT1 promoter” value is on record as “lower, but the effect was not significant” and the “RNAP occupancy of SirT1 promoter” value is “increased”.
